Experimental data: EP0050799B1, “New processes for the production of di-alkyl esters and optically active mono-alkyl esters of 3-aminoglutaric acid” (ZAIDAN HOJIN BISEIBUTSU KAGAKU KENKYU KAI, priority 1980, dated 1982)
Values after ≈ are worked out from the molar mass of the structure shown.

Test system: Staphylococcus aureus
Test: antibacterial activity test (minimum concentration inhibitory to growth)
Format: cell-based
Conditions: for MIC: Staphylococcus aureus; for antibacterial activity against Gram-positive bacteria, particularly against Staphylococcus aureus: general statement in words

MIC	SMILES	antibacterial activity against Gram-positive bacteria, particularly against Staphylococcus aureus
30 to 100 µg/mL (≈ 171 to 571 µM)	CCOC(=O)C[C@H](N)CC(=O)O [Example 7, β-(R)-Aminoglutaric acid mono-ethyl ester]	–
20 µg/mL (≈ 124 µM)	COC(=O)C[C@H](N)CC(=O)O [Example 4, β-(R)-aminoglutaric acid mono- methyl ester]	exhibit an antibacterial activity
20 to 100 µg/mL (≈ 114 to 571 µM)	CCOC(=O)C[C@@H](N)CC(=O)O [Example 2, β-(S)-Aminoglutaric acid mono-ethyl ester]	exhibit antibacterial activity
10 to 100 µg/mL (≈ 62.1 to 621 µM)	COC(=O)C[C@@H](N)CC(=O)O [Example 1 (b), β-(S)-aminoglutaric acid mono-methyl ester]	exhibit antibacterial activity
